Experimental data: US7495104B2, “Quinoline or quinazoline derivatives inhibiting auto-phosphorylation of fibroblast growth factor receptors” (Kirin Beer Kabushiki Kaisha, priority 2001, dated 2009)

Target: Bek (Homo sapiens, UniProt P21802)
Assay: Inhibitory activity against Bek-autophosphorylation using ELISA method in OCUM-2MD3 cells
Format: cell-based
Conditions: 1 hr with compound, read-out: IC50 (concentration necessary for inhibiting 50% of Bek-phosphorylation)
Method: Human scirrhus stomach cancer cells OCUM-2MD3 (kindly provided by Dr. Kosei Hirakawa, Osaka City University) were cultured in an RPMI medium containing 10% fetal calf serum (purchased from ICN) within a 5% carbon dioxide incubator until 50 to 90% confluent. The harvested cells were seeded onto 96-well flat-bottom plate in RPMI containing 0.1% fetal calf serum at 3.5×10^4 cells per well, followed by cultivation at 37° C. overnight. A solution of the test compound in dimethyl sulfoxide was added to each well, and the cultivation was continued at 37° C. for additional one hr. The medium was removed, and 50 μl of lysis buffer (20 mM HEPES (pH 7.4), 150 mM NaCl, 0.2% Triton X-100, 10% glycerol, 5 mM sodium orthovanadylate, 5 mM disodium ethylenediaminetetraacetate, and 2 mM Na4P2O7) was then added thereto. The mixture was shaken at 4° C. for 2 hr to prepare cell extracts.
Separately, phosphate buffered saline (50 μl, pH 7.4) containing 5 μg/ml of anti-phospho-tyrosine antibody (PY20; purchased from Transduction Laboratories) was added to a microplate for ELISA (Maxisorp; purchased from NUNC), followed by standing at 4° C. overnight to form a solid phase on the wells. After washing of the plate, 300 μl of a blocking solution was added, followed by standing at room temperature for 2 hr to perform blocking. After washing, the whole quantity of the cell extracts was transferred to the wells, and the plate was then allowed to stand at 4° C. overnight. After washing, an anti-Bek antibody (Bek (C-17), purchased from Santa Cruz Biotechnology) or Anti-Human K-sam Rabbit IgG Affinity Purity (purchased from IBL Co., Ltd.) was allowed to react at room temperature for one hr, and, after washing, a peroxidase-labeled anti-rabbit Ig antibody (purchased from Amersham) was allowed to react at room temperature for one hr. After washing, a chromophoric substrate for peroxidase (purchased from Sumitomo Bakelite Co., Ltd.) was added thereto to initiate a reaction. After a suitable level of color development, a reaction termination solution was added to stop the reaction, and the absorbance at 450 nm was measured with a microplate reader. The Bek-phosphorylation activity for each well was determined by presuming the absorbance without the addition of the medicament to be 100% Bek-phosphorylation activity and the absorbance with the addition of a large excess of a positive control (N-{4-[(6,7-dimethoxy-4-quinolyl)oxy]phenyl}-N′-(3,3-dimethylbutyl)urea, 1000 nM) to be 0% Bek-phosphorylation activity. The concentration of the test compound was varied on several levels, the Bek-phosphorylation inhibitory activity was determined for each case, and the concentration of the test compound necessary for inhibiting 50% of Bek-phosphorylation (IC50) was calculated.

Bek, sequence (P21802 431-767 limits assumed): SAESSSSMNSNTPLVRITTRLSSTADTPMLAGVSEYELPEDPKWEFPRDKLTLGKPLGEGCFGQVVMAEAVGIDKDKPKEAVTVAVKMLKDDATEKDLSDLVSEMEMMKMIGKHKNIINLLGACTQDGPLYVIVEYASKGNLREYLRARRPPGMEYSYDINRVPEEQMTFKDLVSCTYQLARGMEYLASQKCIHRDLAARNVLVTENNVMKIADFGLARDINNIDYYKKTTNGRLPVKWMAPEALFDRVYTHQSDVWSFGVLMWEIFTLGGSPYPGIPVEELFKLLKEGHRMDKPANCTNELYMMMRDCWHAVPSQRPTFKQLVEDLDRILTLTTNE

Structure (SMILES) | IC50 [nM]
COc1cc2nccc(Oc3ccc(Oc4ccc(C(C)(C)C)cc4)cc3)c2cc1OC [Compound 30, 4-[4-(4-Tert-butylphenoxy)phenoxy]-6,7-dimethoxyquinoline] | 3260
COc1cc2nccc(Oc3ccc(C(OC(C)=O)c4ccc(C(C)(C)C)cc4)cc3)c2cc1OC (stereo not drawn) [Compound 31, (4-Tert-butylphenyl)-[4-(6,7-dimethoxyquinolin-4-yloxy)phenyl]methyl acetate] | 1010
COc1cc2nccc(Oc3ccc(Cc4ccc(C(C)(C)C)cc4)cc3)c2cc1OC [Compound 32, 4-[4-(4-Tert-butylbenzyl)phenoxy]-6,7-dimethoxyquinoline] | 693
COc1cc2c(Oc3ccc(Nc4ccc(C(C)(C)C)cc4)cc3)ccnc2cc1OCCCCN1CCCCC1 [Compound 36, (4-Tert-butylphenyl)-{4-[6-methoxy-7-(4-piperidin-1-ylbutoxy)-quinolin-4-yloxy]phenyl}amine] | 247
COc1cc2c(Oc3ccc(Nc4ccc(C(C)(C)C)cc4)cc3)ccnc2cc1OCCN1CCOCC1 [Compound 37, (4-Tert-butylphenyl)-{4-[6-methoxy-7-(2-morpholin-4-ylethoxy)quinolin-4-yloxy]phenyl}amine] | 345
COc1cc2c(Oc3ccc(Nc4ccc(C(C)(C)C)cc4)cc3)ccnc2cc1OCCN1CCCCC1 [Compound 38, (4-Tert-butylphenyl)-{4-[6-methoxy-7-(2-piperidin-1-ylethoxy)-quinolin-4-yloxy]phenyl}amine] | 463
COc1cc2c(Oc3ccc(Nc4ccc(C(C)(C)C)cc4)cc3)ccnc2cc1OCCN1CCCC1 [Compound 39, (4-Tert-butylphenyl)-{4-[6-methoxy-7-(2-pyrrolidin-1-ylethoxy)-quinolin-4-yloxy]phenyl}amine] | 570
COc1cc2c(Oc3ccc(Nc4ccc(C(C)(C)C)cc4)cc3)ccnc2cc1OCCN(C)C [Compound 40, N1-[4-(Tert-butyl)phenyl]-4-({7-[2-(dimethylamino)ethoxy]-6-methoxy-4-quinolyl}oxy)aniline] | 924
CCN(CC)CCOc1cc2nccc(Oc3ccc(Nc4ccc(C(C)(C)C)cc4)cc3)c2cc1OC [Compound 41, N1-[4-(Tert-butyl)phenyl]-4-({7-[2-(diethylamino)ethoxy]-6-methoxy-4-quinolyl}oxy)aniline] | 480
CCCN1CCC(COc2cc3nccc(Oc4ccc(Nc5ccc(C(C)(C)C)cc5)cc4)c3cc2OC)CC1 [Compound 42, (4-Tert-butylphenyl)-{4-[6-methoxy-7-(1-propylpiperidin-4-ylmethoxy)quinolin-4-yloxy]phenyl}amine] | 399
COc1ccc(Nc2ccc(Oc3ccnc4cc(OC)c(OC)cc34)cc2)cc1OC [Compound 43, (3,4-Dimethoxyphenyl)-[4-(6,7-dimethoxyquinolin-4-yloxy)-phenyl]amine] | 3340
COc1cc2c(Oc3ccc(Nc4ccc(C(C)(C)C)cc4)cc3)ccnc2cc1OCCCN1CCCCCC1 [Compound 54, {4-[7-(3-Azepan-1-ylpropoxy)-6-methoxyquinolin-4-yloxyl]-phenyl}-(4-tert-butylphenyl)amine] | 324
COc1cc2c(Oc3ccc(Nc4ccc(C(C)(C)C)cc4)cc3)ccnc2cc1OCC1CCCCN1C (stereo not drawn) [Compound 55, (4-Tert-butylphenyl)-{4-[6-methoxy-7-(1-methylpiperidin-2-ylmethoxy)quinolin-4-yloxy]phenyl}amine] | 8000
COc1cc2c(Oc3ccc(Nc4ccc(C(C)(C)C)cc4)cc3)ccnc2cc1OCC1CCCN(C)C1 (stereo not drawn) [Compound 56, (4-Tert-butylphenyl)-{4-[6-methoxy-7-(1-methylpiperidin-3-ylmethoxy)quinolin-4-yloxy]phenyl}amine] | 405
COc1cc2c(Oc3ccc(Nc4ccc(C(C)(C)C)cc4)cc3)ccnc2cc1OCC1CCCN1C (stereo not drawn) [Compound 58, (4-Tert-butylphenyl)-{4-[6-methoxy-7-(1-methylpyrrolidin-2-ylmethoxy)quinolin-4-yloxy]phenyl}amine] | 1200

Results, then the compound that gave them:

IC50 [nM] | Structure (SMILES)
155 | COc1cc2c(Oc3ccc(Nc4ccc(C(C)(C)C)cc4)cc3)ccnc2cc1OCCN1CCN(C)CC1 [Compound 33, (4-Tert-butylphenyl)-(4-{6-methoxy-7-[2-(4-methylpiperazin-1-yl)ethoxy]quinolin-4-yloxy}phenyl)amine]
219 | COc1cc2c(Oc3ccc(Nc4ccc(C(C)(C)C)cc4)cc3)ccnc2cc1OCCCN1CCCCC1 [Compound 34, (4-Tert-butylphenyl)-{4-[6-methoxy-7-(3-piperidin-1-ylpropoxy)-quinolin-4-yloxy]phenyl}amine]
220 | COc1cc2c(Oc3ccc(Nc4ccc(C(C)(C)C)cc4)cc3)ccnc2cc1OCCCN1CCN(C)CC1 [Compound 35, (4-Tert-butylphenyl)-(4-{6-methoxy-7-[3-(4-methylpiperazin-1-yl)propoxy]quinolin-4-yloxy}phenyl)amine]
76.5 | COc1cc2nccc(Oc3ccc(Nc4ccc(N5CCOCC5)cc4)cc3)c2cc1OC [Compound 44, [4-(6,7-Dimethoxyquinolin-4-yloxy)phenyl]-(4-morpholin-4-ylphenyl)amine]
240 | COc1cc2c(Oc3ccc(Nc4ccc(C(C)(C)C)cc4)cc3)ccnc2cc1OCCN1CCCN(C)CC1 [Compound 45, (4-Tert-butylphenyl)-(4-{6-methoxy-7-[2-(4-methyl-[1,4]diazepin-1-yl)ethoxy]quinolin-4-yloxy}phenyl)amine]
230 | COc1cc2c(Oc3ccc(Nc4ccc(C(C)(C)C)cc4)cc3)ccnc2cc1OCCCN(C)C [Compound 46, N1-[4-(Tert-butyl)phenyl]-4-({7-[3-(dimethylamino)propoxy]-6-methoxy-4-quinolyl}oxy)aniline]
243 | CCN(CC)CCCOc1cc2nccc(Oc3ccc(Nc4ccc(C(C)(C)C)cc4)cc3)c2cc1OC [Compound 47, N1-[4-(Tert-butyl)phenyl]-4-({7-[3-(diethylamino)propoxy]-6-methoxy-4-quinolyl}oxy)aniline]
33.5 | COc1cc2c(Oc3ccc(Nc4ccc(C(C)(C)C)cc4)cc3)ccnc2cc1OCCN(CCO)CCO [Compound 48, 2-[(2-{4-[4-(4-Tert-butyl-phenylamino)phenoxy]-6-methoxy-quinolin-7-yloxy}ethyl)-(2-hydroxyethyl)amino]ethanol]
33.9 | COc1cc2c(Oc3ccc(Nc4ccc(C(C)(C)C)cc4)cc3)ccnc2cc1OCCN(C)CCO [Compound 49, 2-[(2-{4-[4-(4-Tert-butyl-phenylamino)phenoxy]-6-methoxy-quinolin-7-yloxy}ethyl)methylamino]ethanol]
35 | COc1cc2c(Oc3ccc(Nc4ccc(C(C)(C)C)cc4)cc3)ccnc2cc1OCCN1CCCCCC1 [Compound 50, {4-[7-(2-Azepan-1-ylethoxy)-6-methoxyquinolin-4-yloxy]phenyl}-(4-tert-butylphenyl)amine]
30.6 | COc1cc2c(Oc3ccc(Nc4ccc(C(C)(C)C)cc4)cc3)ccnc2cc1OCCCN(CCO)CCO [Compound 51, 2-[(3-{4-[4-(4-Tert-butylphenylamino)phenoxy]-6-methoxy-quinolin-7-yloxy}propyl)-(2-hydroxyethyl)amino]ethanol]
33 | COc1cc2c(Oc3ccc(Nc4ccc(C(C)(C)C)cc4)cc3)ccnc2cc1OCCCN(C)CCO [Compound 52, 2-[(3-{4-[4-(4-Tert-butylphenylamino)phenoxy]-6-methoxy-quinolin-7-yloxy}propyl)methylamino]ethanol]
38 | COc1cc2c(Oc3ccc(Nc4ccc(C(C)(C)C)cc4)cc3)ccnc2cc1OCCCN1CCCC1 [Compound 53, (4-Tert-butylphenyl)-{4-[6-methoxy-7-(3-pyrrolidin-1-ylpropoxy)-quinolin-4-yloxy]phenyl}amine]
143 | COc1cc2c(Oc3ccc(Nc4ccc(C(C)(C)C)cc4)cc3)ccnc2cc1OCC(O)CN1CCOCC1 (stereo not drawn) [Compound 59, 1-{4-[4-(4-Tert-butyl-phenylamino)phenoxy]-6-methoxyquinolin-7-yloxy}-3-morpholin-4-ylpropan-2-ol]
203 | CCN(CC)CC(O)COc1cc2nccc(Oc3ccc(Nc4ccc(C(C)(C)C)cc4)cc3)c2cc1OC (stereo not drawn) [Compound 60, 1-{4-[4-(4-Tert-butyl-phenylamino)phenoxy]-6-methoxyquinolin-7-yloxy}-3-diethylaminopropan-2-ol]
